We go through three compounds from US9458113B2 (Boehringer Ingelheim International GmbH, priority 2014, dated 2016).

Data set [1] is described as follows: Aqueous solubility (High Throughput Method). The format is physicochemical. The note with it: McIlvaine buffer pH 6.8 with 2.5% DMSO, kinetic from dmso stock, McIlvaine buffer pH 6.8, 2.5% DMSO, 24 h shaking. Here is the method:
Assay for Determination of Aqueous Solubility (“High Throughput Method”)
Starting from a […] DMSO stock solution, aliquots are diluted with acetonitrile/water (1/1) and McIlvaine buffer pH 6.8, respectively. After 24 h of shaking, the solutions or suspensions are filtered and analyzed by LC-UV. The amount dissolved in buffer is compared to the amount dissolved in the acetonitrile/water (1/1) solution. Solubility is measured from 0.001 to 0.125 mg/ml at a DMSO concentration of 2.5%. If more than 90% of the compound is dissolved in buffer, the value is marked with “>”.

A further data set deals with human hepatocytes. The data set is described as follows: Metabolic stability with human hepatocytes. As to conditions: 1 μM test compound, well stirred model. The format is in vitro ADME. The protocol:
Assay for the Determination of Metabolic Stability with Human Hepatocytes
The metabolic degradation of the test compound is assayed in a human hepatocyte suspension. Human hepatocytes (typically cryopreserved) are incubated in an appropriate buffer system (e.g. Dulbecco's modified eagle medium plus 3.5 μg glucagon/500 mL, 2.5 mg insulin/500 mL and 3.75 mg/500 mL hydrocortison) containing 5% species serum. Following a (typically) […] preincubation in an incubator (37° C., 10% CO2), 5 μl of test compound solution (80 μM; from […] stock solution in DMSO diluted 1:25 with medium) are added into 395 μl hepatocyte suspension (cell density in the range 0.25-5*10^6 cells/mL, typically 1*10^6 cells/mL; final concentration of test compound 1 μM, final DMSO concentration 0.05%). The cells are incubated for six hours (incubator, orbital shaker) and samples (25 μl) are taken at 0, 0.5, 1, 2, 4 and 6 hours. Samples are transferred into acetonitrile and pelleted by centrifugation (5 min) The supernatant is transferred to a new 96-deepwell plate, evaporated under nitrogen and resuspended. The decline of parent compound is analyzed by LC-MS/MS.
The intrinsic clearance CL_[…] is calculated as follows: CL_[…]=Dose/AUC=(C0/CD)/(AUD+clast/k)*1,000/60
(C0: initial concentration in the incubation [μM], CD: cell density of vital cells [10^6 cells/mL], AUD: area under the data [μM*h], clast: concentration of last data point [μM], k: slope of the regression line for parent decline [h^−1])
The calculated in vitro hepatic intrinsic clearance Qh can be scaled up to the intrinsic in vivo hepatic clearance and used to predict hepatic in vivo blood clearance (CL) by the use of a liver model (well stirred model): CL_[…]_INVIVO [ml/min/kg]=(CL_[…] [μL/min/10^6 cells]*hepatocellularity [10^6 cells/g liver]*liver factor [g/kg bodyweight])/1,000 CL [ml/min/kg]=CL_[…]_INVIVO [ml/min/kg]*hepatic blood flow [ml/min/kg]/(CL_[…]_INVIVO [ml/min/kg]+hepatic blood flow [ml/min/kg]) Qh [%]=CL [ml/min/kg]/hepatic blood flow [ml/min/kg])
(Hepatocellularity, human: 120*10^6 cells/g liver; liver factor, human: 25.7 g/kg bodyweight; blood flow, human: 21 ml/(min*kg))
The calculated in-vitro hepatic intrinsic clearance values of selected compounds in the metabolic stability assay with human hepatocytes described above are listed in Table 15.

The next data set has as its target cytochrome P450 2C8 (Homo sapiens (Human), UniProt P10632). The data set is described as follows: Cytochrome P450 2C8 inhibition. Type of data set: in vitro ADME. As to conditions: human liver microsomes, Amodiaquine deethylation; read-out: IC50 (CYP 2C8). The text has this:
Assay for Determination of Cytochrome P450 2C8 Inhibition
(§1) (I=inhibitor concentration, S=slope factor, B=background activity)

Data set [2] in a line: Drug transport across human Caco-2 cells. The format is in vitro ADME. The note with it: apparent permeability coefficient, Caco-2 monolayers, pH 7.2, 37° C.; for Papp A→B at 10 µM: apical-to-basal (absorptive), read-out: PEAB; for Papp B→A at 10 µM: basal-to-apical (secretory), read-out: PEBA. From the text:
Assay for Determination of Drug Transport Across Human Caco-2 Cells
The assay provides information on the potential of a compound to pass the cell membrane, on the extent of oral absorption as well as on whether the compound is actively transported by uptake and/or efflux transporters. For the measurement of permeability across polarized, confluent human cancer colon carcinoma cells 2 (Caco-2) cell monolayers grown on permeable filter supports are used as the in vitro absorption model.
Apparent permeability coefficients (PE) of the compounds across the Caco-2 monolayers are measured (pH 7.2, 37° C.) in apical-to-basal (AB) (absorptive) and basal-to-apical (BA) (secretory) transport direction. AB permeability (PEAB) represents drug absorption from the intestine into the blood and BA permeability (PEBA) drug secretion from the blood back into the intestine via both passive permeability as well as active transport mechanisms mediated by efflux and uptake transporters that are expressed on the Caco-2 cells. The compounds are assigned to permeability/absorption classes by comparison of the AB permeabilities with the AB permeabilities of reference compounds with known in vitro permeability and oral absorption in the human. Identical or similar permeabilities in both transport directions indicate passive permeation, vectorial permeability points to additional active transport mechanisms. […] Active transport is concentration-dependently saturable.
Caco-2 cells (1-2*10^5 cells/cm^2 area) are seeded on filter inserts (Costar transwell polycarbonate or PET filters, 0.4 μm pore size) and cultured (DMEM) for 10 to 25 days. Compounds are dissolved in appropriate solvent (like DMSO, […] stock solutions). Stock solutions are diluted with HTP-4 buffer (128.13 mM NaCl, 5.36 mM KCl, 1 mM MgSO4, 1.8 mM CaCl2, 4.17 mM NaHCO3, 1.19 mM Na2HPO4x7H2O, 0.41 mM NaH2PO4xH2O, 15 mM HEPES, 20 mM glucose, pH 7.2) to prepare the transport solutions (typically 10 μM compound, final DMSO<=0.5%). The transport solution (TL) is applied to the apical or basolateral donor side for measuring A-B or B-A permeability (3 filter replicates), respectively. The receiver side contains HTP-4 buffer supplemented with 2% BSA. Samples are collected at the start and end of experiment from the donor and at various time intervals for up to 2 hours also from the receiver side for concentration measurement by LC-MS/MS or scintillation counting. Sampled receiver volumes are replaced with fresh receiver solution.
The apparent permeability coefficients (PEAB and PEBA) of selected compounds in the Caco-2 drug transport assay described above are listed in Table 16.

The target in data set [3] is neutrophil elastase in zymosan-stimulated human plasma (Homo sapiens (Human), UniProt P08246). The data set is described as follows: Neutrophil elastase inhibitory activity in human plasma. The note with it: human plasma from zymosan-stimulated blood. The format is biochemical.
Description: Assay for the Determination of Neutrophil Elastase Inhibitory Activity in Human Plasma
Citrated blood from human healthy donors is mixed with zymosan suspension and incubated at room temperature. This leads to the stimulation of neutrophils and the release of neutrophil elastase into the plasma. The stimulated blood is centrifuged to generate the neutrophil elastase enriched plasma.
Various concentrations of the neutrophil elastase inhibitor are incubated with plasma. […] A dose response curve is generated to calculate the EC50 of the inhibitor.
The next data set deals with cytochrome P450 2C19 (Homo sapiens (Human), UniProt P33261). The data set is described as follows: Cytochrome P450 2C19 inhibition. Type of data set: in vitro ADME. The note with it: human liver microsomes, (S)-Mephenytoin hydroxylation; read-out: IC50 (CYP 2C19).
Description: Assay for Determination of Cytochrome P450 2C19 Inhibition
as §1
On the technique in general: Liver microsomes are a subcellular fraction often used to study metabolism.

The target in data set [4] is Human neutrophil elastase (Homo sapiens (Human), UniProt P08246). The data set can be described thus: Human Neutrophil Elastase Assay. The format is biochemical. As to conditions: substrate MeOSuc-Ala-Ala-Pro-Val-AMC 250 μM, pH 7.5.
Description: The following buffers were used: Compound buffer: 100 mM Tris, 500 mM NaCl, adjusted to pH 7.5; Assay buffer: 100 mM Tris, 500 mM NaCl, adjusted to pH 7.5, containing 0.01% BSA.
Assay conditions: Test compounds were prediluted in DMSO and subsequently in compound buffer (5% DMSO final). […] After inactivation of the enzyme, fluorescence intensities were measured at 380 nm excitation and 460 nm emission wavelengths.
Each plate contains wells with a high value control (DMSO+enzyme+substrate) and wells with a low value control (DMSO+inactivated enzyme+substrate). IC50 values were estimated using a sigmoidal concentration response curve with variable slope. Means of low values were taken as 0%, means of high values as 100%.

pEC50, pIC50: −log10 of the molar value. ≈ marks a conversion by molar mass, not a printed value.

cytochrome P450 2C19, sequence (P33261 whole entry): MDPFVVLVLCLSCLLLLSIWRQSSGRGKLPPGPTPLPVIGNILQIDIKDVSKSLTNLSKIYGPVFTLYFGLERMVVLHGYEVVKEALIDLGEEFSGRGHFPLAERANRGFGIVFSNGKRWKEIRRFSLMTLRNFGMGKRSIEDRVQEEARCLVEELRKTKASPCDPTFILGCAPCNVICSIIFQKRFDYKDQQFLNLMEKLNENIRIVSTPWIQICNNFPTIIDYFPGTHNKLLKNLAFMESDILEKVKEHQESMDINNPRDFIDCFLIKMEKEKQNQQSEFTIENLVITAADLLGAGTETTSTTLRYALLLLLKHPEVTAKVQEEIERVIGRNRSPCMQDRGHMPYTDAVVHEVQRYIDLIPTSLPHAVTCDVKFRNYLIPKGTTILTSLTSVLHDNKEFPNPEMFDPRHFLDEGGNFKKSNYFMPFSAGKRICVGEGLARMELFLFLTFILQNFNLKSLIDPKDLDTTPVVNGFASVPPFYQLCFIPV
cytochrome P450 2C8, sequence (P10632 whole entry): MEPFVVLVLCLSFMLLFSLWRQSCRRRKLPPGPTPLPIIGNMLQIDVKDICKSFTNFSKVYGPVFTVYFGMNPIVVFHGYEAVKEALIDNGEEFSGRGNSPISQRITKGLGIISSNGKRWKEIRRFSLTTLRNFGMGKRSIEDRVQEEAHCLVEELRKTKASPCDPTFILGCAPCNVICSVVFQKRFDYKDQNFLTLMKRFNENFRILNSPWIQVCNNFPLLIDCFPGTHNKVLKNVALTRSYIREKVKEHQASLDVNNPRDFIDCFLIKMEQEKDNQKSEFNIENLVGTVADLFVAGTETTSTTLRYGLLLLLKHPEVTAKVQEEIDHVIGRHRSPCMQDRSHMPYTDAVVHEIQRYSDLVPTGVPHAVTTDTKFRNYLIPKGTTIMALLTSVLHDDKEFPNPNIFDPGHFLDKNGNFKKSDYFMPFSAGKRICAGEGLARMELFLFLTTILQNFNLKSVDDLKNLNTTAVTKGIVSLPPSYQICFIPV
Human neutrophil elastase, sequence (P08246 30-247): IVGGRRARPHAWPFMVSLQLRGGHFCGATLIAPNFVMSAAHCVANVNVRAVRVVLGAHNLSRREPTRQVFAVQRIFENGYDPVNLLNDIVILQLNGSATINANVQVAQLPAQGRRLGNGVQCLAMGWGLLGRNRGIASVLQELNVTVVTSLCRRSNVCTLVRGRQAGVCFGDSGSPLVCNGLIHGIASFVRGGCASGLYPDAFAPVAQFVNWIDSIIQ
neutrophil elastase in zymosan-stimulated human plasma, sequence (P08246 30-247): as above

As usually defined, the solubility is the dissolved amount per volume that the medium holds. Read a low solubility as a poorly soluble substance. As usually defined, the pIC50 is the IC50 on a negative log10 scale, so that one unit is a factor of ten. One may read the pEC50 as the negative decadic logarithm of the EC50, by convention in mol/L. A lower pEC50 goes with a large EC50. For the compound `CN1C(=O)N(c2cccc(C(F)(F)F)c2)C2=C(C(=O)CC2)[C@H]1c1ccc(C#N)cc1C(N)=O` [Example 2, 5-Cyano-2-[(R)-3-methyl-2,5-dioxo-1-(3-trifluoromethyl-phenyl)-2,3,4,5,6,7-hexahydro-1H-cyclopentapyrimidin-4-yl]-benzamide], the solubility at 24 h in data set [1] was determined as 84 µg/mL (≈ 185 µM). In addition, in the data set with human hepatocytes, the Qh is given as 12%. In addition, the pIC50 is under 4.30 at cytochrome P450 2C8, under 4.30 on cytochrome P450 2C19 and 8.62 in data set [4]. The Papp A→B at 10 µM in data set [2] came out at 4.8 ×10⁻⁶ cm/s. Also, the Papp B→A at 10 µM in data set [2] turned out to be 51 ×10⁻⁶ cm/s. Moreover, the pEC50 in data set [3] is 9.00.
Regarding `CN1C(=O)N(c2cccc(C(F)(F)F)c2)C2=C(C(=O)CC2)[C@H]1c1ccc(C#N)cc1-c1ccc(=O)n(C)c1` [Example 23, 4-[(R)-3-Methyl-2,5-dioxo-1-(3-trifluoromethyl-phenyl)-2,3,4,5,6,7-hexahydro-1H-cyclopentapyrimidin-4-yl]-3-(1-methyl-6-oxo-1,6-dihydro-pyridin-3-yl)-benzonitrile], the solubility at 24 h in data set [1] amounted to 53 µg/mL (≈ 102 µM). The compound also registered a Qh with human hepatocytes of 13%. Also, the pIC50 at cytochrome P450 2C8 is under 4.30; at cytochrome P450 2C19, under 4.30; in data set [4] it was over 9.00. In data set [2], the Papp A→B at 10 µM stood at 6.6 ×10⁻⁶ cm/s. In addition, in data set [2], the Papp B→A at 10 µM was determined as 87 ×10⁻⁶ cm/s. In data set [3], this compound had a pEC50 of 9.00.
`CN1C(=O)N(c2cccc(C(F)(F)F)c2)C2=C(C(=O)CC2)[C@H]1c1ccc(C#N)cc1CNC(C)(C)C` [Example 24, 3-(tert-Butylamino-methyl)-4-[(R)-3-methyl-2,5-dioxo-1-(3-trifluoromethyl-phenyl)-2,3,4,5,6,7-hexahydro-1H-cyclopentapyrimidin-4-yl]-benzonitrile] yielded a solubility at 24 h in data set [1] of 48 µg/mL (≈ 96.7 µM). In addition, the Qh in the data set on human hepatocytes is on record as 10%. Moreover, the pIC50 is under 4.30 at cytochrome P450 2C8, under 4.30 on cytochrome P450 2C19 and 8.72 in data set [4]. In addition, in data set [2], the Papp A→B at 10 µM was 21 ×10⁻⁶ cm/s. Besides, the Papp B→A at 10 µM in data set [2] stood at 84 ×10⁻⁶ cm/s. In data set [3], this compound showed a pEC50 of 8.15.
